According to ChEMBL document CHEMBL4052775, “Design, synthesis and in vitro anti-mycobacterial evaluation of gatifloxacin-1H-1,2,3-triazole-isatin hybrids” (Bioorg Med Chem Lett, 2017):
Values after ≈ are worked out from the molar mass of the structure shown.

Test system: Mycobacterium tuberculosis
Assay: Antimycobacterial activity against isoniazid/rifampicin/ethambutol-resistant Mycobacterium tuberculosis 09710 by two fold dilution method
Assay type: functional

With `COc1c(N2CCNC(C)C2)c(F)cc2c(=O)c(C(=O)O)cn(C3CC3)c12` (stereo not drawn) [GATIFLOXACIN] the MIC was 1 mg/L (≈ 2.66 µM).
Work on `NNC(=O)c1ccncc1` [ISONIAZID] yielded an MIC of over 128 mg/L.
Work on `CO[C@H]1/C=C/O[C@@]2(C)Oc3c(C)c(O)c4c(O)c(c(/C=N/N5CCN(C)CC5)c(O)c4c3C2=O)NC(=O)/C(C)=C\C=C\[C@H](C)[C@H](O)[C@@H](C)[C@@H](O)[C@@H](C)[C@H](OC(C)=O)[C@@H]1C` [RIFAMPIN] yielded an MIC of 32 mg/L (≈ 38.9 µM).
